Measurements from ChEMBL document CHEMBL6127139, “Lysine-Targeted Covalent Inhibitors of PI3Kδ Synthesis and Screening by In Situ Interaction Upgradation” (J Med Chem, 2024).
Activity calls are given as the source filed them. No cut-off for these calls is given here.

Experiments:
[1] = tested on: SU-DHL-6; experiment: Antitumor activity against human SU-DHL-6 cells xenografted in male nude mouse assessed as tumor growth inhibition at 5 mg/kg/day, po administered for 14 days relative to control; assay type: functional; details: SU-DHL-6, 336 h, time 14 day, read-out: TGI
[2] = target: Phosphatidylinositol 4,5-bisphosphate 3-kinase catalytic subunit beta isoform (Homo sapiens, UniProt P42338); experiment: Inhibition of recombinant PI3Kbeta (unknown origin) using PIP2:3PS as substrate preincubated for 20 mins followed by ATP addition and measured after 1 hrs by ADP-Glo reagent based assay
Sequence of Phosphatidylinositol 4,5-bisphosphate 3-kinase catalytic subunit beta isoform (P42338 whole entry, canonical isoform): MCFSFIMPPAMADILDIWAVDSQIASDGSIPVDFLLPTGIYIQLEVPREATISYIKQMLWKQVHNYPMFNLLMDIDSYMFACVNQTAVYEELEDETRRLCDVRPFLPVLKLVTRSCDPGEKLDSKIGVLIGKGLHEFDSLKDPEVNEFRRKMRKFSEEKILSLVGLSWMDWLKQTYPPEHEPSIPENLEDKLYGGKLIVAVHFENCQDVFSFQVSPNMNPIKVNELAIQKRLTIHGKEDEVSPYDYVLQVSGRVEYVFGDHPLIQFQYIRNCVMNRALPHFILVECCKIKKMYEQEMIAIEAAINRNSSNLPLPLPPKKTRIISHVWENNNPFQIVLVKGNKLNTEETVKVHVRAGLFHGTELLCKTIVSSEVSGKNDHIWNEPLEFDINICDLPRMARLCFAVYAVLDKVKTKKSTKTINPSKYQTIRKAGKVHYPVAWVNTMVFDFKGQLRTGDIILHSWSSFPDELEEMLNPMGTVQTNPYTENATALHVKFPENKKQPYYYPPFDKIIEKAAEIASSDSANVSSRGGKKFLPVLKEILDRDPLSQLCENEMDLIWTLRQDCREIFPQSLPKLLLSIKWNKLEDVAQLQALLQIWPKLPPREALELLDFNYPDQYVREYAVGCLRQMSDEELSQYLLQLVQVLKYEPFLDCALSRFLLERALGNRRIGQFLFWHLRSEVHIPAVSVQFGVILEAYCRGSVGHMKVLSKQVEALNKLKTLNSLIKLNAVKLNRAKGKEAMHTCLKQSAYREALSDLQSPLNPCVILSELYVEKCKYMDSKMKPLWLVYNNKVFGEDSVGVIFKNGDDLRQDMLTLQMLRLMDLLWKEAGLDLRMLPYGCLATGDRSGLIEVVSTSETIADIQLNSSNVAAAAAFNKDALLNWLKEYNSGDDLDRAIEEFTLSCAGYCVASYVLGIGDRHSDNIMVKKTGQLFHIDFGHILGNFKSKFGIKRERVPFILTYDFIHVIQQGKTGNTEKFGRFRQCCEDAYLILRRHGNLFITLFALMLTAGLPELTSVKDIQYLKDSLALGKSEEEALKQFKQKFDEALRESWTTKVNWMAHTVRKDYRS

[3] = tested on: SU-DHL-6; experiment: Antitumor activity against human SU-DHL-6 cells xenografted in male nude mouse assessed as reduction in Ki67 expression in tumor at 5 to 30 mg/kg/day, po administered for 14 days by immunohistochemical staining based analysis; assay type: functional, organism-based; details: dose 5-30 mg/kg/day, time 14.0 day
[4] = target: T1, Phosphatidylinositol 4,5-bisphosphate 3-kinase catalytic subunit delta isoform (Homo sapiens) (UniProt O00329); experiment: Potency index, ratio of idelalisib IC50 to test compound IC50 for inhibition of recombinant PI3Kdelta (unknown origin) using PIP2:3PS as substrate preincubated for 20 mins followed by ATP addition and measured after 1 hrs by ADP-Glo reagent based assay; details: time 80.0 min
T1 sequence (whole entry): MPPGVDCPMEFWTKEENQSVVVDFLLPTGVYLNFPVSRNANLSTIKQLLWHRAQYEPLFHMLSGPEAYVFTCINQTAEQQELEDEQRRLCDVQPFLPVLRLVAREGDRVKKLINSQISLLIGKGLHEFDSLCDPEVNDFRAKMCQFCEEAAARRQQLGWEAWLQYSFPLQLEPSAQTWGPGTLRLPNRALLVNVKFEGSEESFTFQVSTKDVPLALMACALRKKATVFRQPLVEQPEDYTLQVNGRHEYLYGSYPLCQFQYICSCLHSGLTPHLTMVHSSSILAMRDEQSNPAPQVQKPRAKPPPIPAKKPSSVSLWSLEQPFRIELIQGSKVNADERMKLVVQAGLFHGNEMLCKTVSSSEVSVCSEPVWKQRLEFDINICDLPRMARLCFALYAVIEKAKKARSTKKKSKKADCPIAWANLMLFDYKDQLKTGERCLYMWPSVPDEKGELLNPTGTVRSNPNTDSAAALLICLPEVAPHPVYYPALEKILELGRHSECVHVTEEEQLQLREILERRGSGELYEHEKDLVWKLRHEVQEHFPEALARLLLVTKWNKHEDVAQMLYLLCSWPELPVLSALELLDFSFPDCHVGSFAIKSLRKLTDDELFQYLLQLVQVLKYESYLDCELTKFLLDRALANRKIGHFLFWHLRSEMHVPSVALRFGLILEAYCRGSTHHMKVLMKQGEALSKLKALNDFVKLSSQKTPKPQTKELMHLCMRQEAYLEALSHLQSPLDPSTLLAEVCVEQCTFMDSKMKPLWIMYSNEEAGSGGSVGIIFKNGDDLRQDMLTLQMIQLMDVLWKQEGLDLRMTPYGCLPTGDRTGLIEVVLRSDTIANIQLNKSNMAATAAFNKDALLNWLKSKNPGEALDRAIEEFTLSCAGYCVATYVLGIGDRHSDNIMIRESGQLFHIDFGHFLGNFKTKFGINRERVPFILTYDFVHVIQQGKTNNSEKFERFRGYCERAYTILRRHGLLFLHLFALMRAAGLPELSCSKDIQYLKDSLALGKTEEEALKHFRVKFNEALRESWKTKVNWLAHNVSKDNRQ

[5] = tested on: SU-DHL-6; experiment: Induction of apoptosis in human SU-DHL-6 cells assessed as viable cells at 1 uM incubated for 48 hrs by Annexin V-FITC/PI staining based flow cytometric analysis (reference value: 89.81 %); assay type: functional; details: read-out: Activity
[6] = tested on: Pfeiffer; experiment: Antitumor activity against human Pfeiffer cells xenografted in male nude mouse assessed as tumor growth inhibition at 5 mg/kg/day, po administered for 14 days relative to control; assay type: functional; details: 336 h, time 14 day, read-out: TGI
[7] = tested on: SU-DHL-6; experiment: Induction of cell cycle arrest in human SU-DHL-6 cells assessed as increase in G0/G1 phase cells incubated for 24 hrs by PI staining based flow cytometric analysis; assay type: functional; details: dose 1-100 nM
[8] = tested on: Raji; experiment: Growth inhibition of human Raji cells incubated for 72 hrs by MTT assay; assay type: functional
[9] = Toxicity in male nude mouse xenografted with human Pfeiffer cells assessed as change in body weight at 5 to 30 mg/kg/day, po administered for 14 days; assay type: organism-based; details: in vivo, 336 h, dose 5-30 mg/kg/day, time 14 day
[10] = tested on: SU-DHL-6; experiment: Induction of apoptosis in human SU-DHL-6 cells assessed as early apoptotic cells at 1 uM incubated for 48 hrs by Annexin V-FITC/PI staining based flow cytometric analysis (reference value: 5.02 %); assay type: functional
[11] = tested on: Pfeiffer; experiment: Antitumor activity against human Pfeiffer cells xenografted in male nude mouse assessed as tumor growth inhibition at 30 mg/kg/day, po administered for 14 days relative to control; assay type: functional; details: 336 h, time 14 day, read-out: TGI
[12] = tested on: SU-DHL-6; experiment: Antiproliferative activity against human SU-DHL-6 cells assessed as inhibition of cell viability preincubated for 12 hrs followed by compound washout and measured after 60 hrs by MTT assay; assay type: functional, cell-based
[13] = tested on: SU-DHL-6; experiment: Induction of apoptosis in human SU-DHL-6 cells assessed as necrotic cells at 0.1 uM incubated for 48 hrs by Annexin V-FITC/PI staining based flow cytometric analysis (reference value: 1.05 %); assay type: functional
[14] = target: T1, Phosphatidylinositol 4,5-bisphosphate 3-kinase catalytic subunit delta isoform (Homo sapiens); experiment: Binding affinity to PI3Kdelta in human SU-DHL-6 cells preincubated for 1 hrs followed by (S)-phenyl 5-(4-((1-(1-(3-azidopropanoyl)piperidine-4-carbonyl)pyrrolidin-3-yl)amino)pyrido[3,2-d]pyrimidin-6-yl)-2-methoxynicotinate addition and measured after 2 hrs by DBCO-Cy3 based SDS-PAGE analysis; assay type: cell-based; details: time 3.0 hrs
[15] = tested on: SU-DHL-6; experiment: Potency index, ratio of idelalisib GI50 to test compound GI50 for growth inhibition of PI3Kdelta-overexpressing human SU-DHL-6 cells incubated for 72 hrs by MTT assay; assay type: functional
[16] = tested on: SU-DHL-6; experiment: Induction of apoptosis in human SU-DHL-6 cells assessed as viable cells at 0.1 uM incubated for 48 hrs by Annexin V-FITC/PI staining based flow cytometric analysis (reference value: 89.81 %); assay type: functional; details: read-out: Activity
[17] = tested on: SU-DHL-6; experiment: Irreversible inhibition of AKT phosphorylation in human SU-DHL-6 cells preincubated for 12 hrs followed by compound washout and measured after 24 hrs by Western blot analysis; assay type: cell-based
[18] = tested on: SU-DHL-6; experiment: Induction of apoptosis in human SU-DHL-6 cells assessed as necrotic cells at 0.01 uM incubated for 48 hrs by Annexin V-FITC/PI staining based flow cytometric analysis (reference value: 1.05 %); assay type: functional
[19] = tested on: SU-DHL-6; experiment: Induction of apoptosis in human SU-DHL-6 cells assessed as late apoptotic cells at 0.01 uM incubated for 48 hrs by Annexin V-FITC/PI staining based flow cytometric analysis (reference value: 4.12 %); assay type: functional
[20] = Selectivity ratio of GI50 for human HCT-116 cells to GI50 for PI3Kdelta overexpressing human SU-DHL-6; assay type: functional
[21] = tested on: SU-DHL-6; experiment: Inhibition of AKT phosphorylation in human SU-DHL-6 cells incubated for 24 hrs by Western blot analysis; assay type: cell-based; details: dose 10-1000 nM

COc1ncc(-c2ccc3ncnc(N[C@H]4CCN(C(=O)C5CCOCC5)C4)c3n2)cc1C(=O)Oc1ccccc1
inhibition in vivo at 5 mg/kg/day [1]: 84% | IC50 [2]: 0.203 µM | Activity [3]: Active | Ratio IC50 [4]: 10 | viability at 1 µM [5]: 14.2% | inhibition in vivo at 5 mg/kg/day [6]: 44% | Activity [7]: Dose-Dependent Effect | GI50 [8]: 5.39 µM | Activity [9]: Non-Toxic | Activity [10]: 63.74% | inhibition in vivo at 30 mg/kg/day [11]: 61% | Activity [12]: Active | Activity [13]: 0.92% | Activity [14]: Active | RatioGI50 [15]: ~10 | viability at 0.1 µM [16]: 65.3% | inhibition [17]: Active | Activity [18]: 0.52% | Activity [19]: 4.19% | RatioGI50 [20]: 2500 | inhibition [21]: Dose-Dependent Effect
